Assay results published in patent US20220050096A1, “ANALYTE-SENSITIVE PROBES AND CONTACT LENS FOR DIAGNOSIS OF OCULAR PATHOLOGIES” (University Of Maryland, Baltimore, priority 2020, published 2022).
Several values for one entry are separate records, joined by “and”; a condition that tells them apart may be missing. Identical values can stand only once.

Key:
[1] = Chloride-dependent intensity decay analysis of SPQ-C18 in Biofinity contact lenses, phosphate buffer pH 7.2; format: physicochemical
Description: (§1) Fluorescence Spectroscopic Measurements. Fluorescence intensities and intensity decays were measured using a Varian™ Eclipse 4 spectrofluorometer and a FluoTime300 instrument from PicoQuant™ (Berlin, Germany) and analyzed with the EasyTau™ software. The excitation source was a 473 nm laser diode with a repetition rate of 40 MHZ and a pulse width less than 100 ps. In other embodiments, the excitation source for SG-PL was at 495 nm from a Solea™ supercontinuum laser (PicoQuant™, Germany) and a 375 nm laser diode (PDL 375, PicoQuant™), a repetition rate of 40 MHz, and a pulse width less than 100 ps. Some intensity and lifetime measurements for SG-PL (as indicated) were performed using Alba V confocal fluorescence lifetime microscopy, FLIM (ISS, Urbana, Ill.), with excitation source of a 473 nm laser diode with a repetition rate of 40 MHz and a pulse width near 250 ps.
Intensity decays were measured at the emission maximum with the band of 10 to 20 nm, analyzed in terms of the multi-exponential model:
I(t)=Σαi exp(−t/ti) (equation 1)
where ti are the individual decay times and αi the initial time-zero amplitudes. The mean decay time can be represented in two ways. The average lifetime is given by:
where Σαi=1.0 and Σfi=1.0. The term fi=αi τi is proportional to the fractional contribution of each component to the total intensity decay. The term τi/Σαi τi is the fractional contribution to the steady state emission. Here, we use the amplitude-weighted lifetime given by
which is appropriate when the emission is from a single fluorophore with a changing quantum yield. For a single exponential decay, the lifetime is given by τ=1.0/(knr+Γ) and the quantum yield is given by Q=Γ/(knr+Γ) where knr is the sum of all non-radiative decay rates and Γ is the radiative decay rate. The value of Γ is determined by the molecular extinction coefficient that remains constant under most conditions. For a single type of fluorophore with a constant value of Γ the normalized αi values represent the molecular fraction of each decay time component. The value of αi and τi were determined by non-linear least squares fitting using PicoQuant™ software.
Quenching by Chloride. Collisional quenching occurs, for example, when SPQ-C18 (also referred to as OD-MQB (N-Octadecyl-6-methoxyquinolinium bromide)) has a diffusion collision with a chloride ion. The intensities (I) and lifetimes (6) are analyzed using the Stern-Volmer equation,
SPQ-C18 was synthesized using 6-methoxy quinolinium (SPQ) and 1-bromooctadecane (C18) as described in the art. Lenses were labeled by incubation with 3 ml of a 1 μM solution of SPQ-C18 in methanol-water. SPQ-C18 bound rapidly to the Biofinity™ lenses. […] Unless stated otherwise, all spectral measurements conducted for the present study were performed in 20 mM MOPS buffer, 8 mM KCl, pH 7.2, at room temperature.

[2] = Fluorescence anisotropy decays of SG in buffer and sodium probes in Biofinity lenses; format: physicochemical
Description: Three decay time components were required for the intensity decays. Fluorescence anisotropy decays were determined by individual measurements of the polarized intensity decays with corrections for the G-factor. Resolution of multi-exponential decays is not necessary. The average lifetime can be used as a single measurement.
Similar anisotropy decays have been observed for numerous fluorophores bound to large proteins or membranes.

[3] = Sodium binding affinity (mid-point) of SG in buffer; settings: read-out: Na^+ binding constant / binding affinity (mid-point)
Description: as §1
(§2) Sodium Binding Affinity. The sodium affinity of the labeled lenses can be described in terms of the dissociation constant. The dissociation reaction for the probe complexed with Na+ can be written as
P—Na^+↔P+Na^+ (equation 4)
where P is the free probe with no bound sodium in the dissociation constant KD is given. The ratio of sodium free and sodium bound probe is given by
The binding affinity is given as the mid-point (MP) of the ion-dependent response where the spectral change is 50% complete. […]

[4] = Sodium binding affinity (mid-point of response) and sodium-dependent intensity of probes bound to contact lenses; settings: lens not named; read-out: binding constant after addition of linker, hydrophobic moiety and/or binding to the lenses
Description: as §1, §2
P—Na^+↔P+Na^+ (equation 4) […]
Binding affinity curves of SG-PL with sodium in Biofinity™ and MyDay™ lenses were produced by plotting the normalized intensities with respect to the added sodium concentrations. The curves were measured by intensities at peak maximum (FIG. 38A) or amplitude-weighted lifetimes (FIG. 38B). […]

CCCCCCCCCCCCCCCCCC[n+]1cccc2cc(OC)ccc21 [SPQ-C18, N-Octadecyl-6-methoxyquinolinium bromide]
f1 ([1]; NaCl 0 mM): 0.02
f2 ([1]; NaCl 0 mM): 0.10
f3 ([1]; NaCl 0 mM): 0.88
α1 ([1]; NaCl 0 mM): 0.36
α2 ([1]; NaCl 0 mM): 0.21
α3 ([1]; NaCl 0 mM): 0.44
τ1 ([1]; NaCl 0 mM): 0.69 ns
τ2 ([1]; NaCl 0 mM): 5.15 ns
τ3 ([1]; NaCl 0 mM): 20.74 ns
τf ([1]; NaCl 0 mM): 18.66 ns
τα ([1]; NaCl 0 mM): 10.35 ns
f1 ([1]; NaCl 20 mM): 0.03
f2 ([1]; NaCl 20 mM): 0.13
f3 ([1]; NaCl 20 mM): 0.84
α1 ([1]; NaCl 20 mM): 0.41
α2 ([1]; NaCl 20 mM): 0.21
α3 ([1]; NaCl 20 mM): 0.38
τ1 ([1]; NaCl 20 mM): 0.65 ns
τ2 ([1]; NaCl 20 mM): 4.98 ns
τ3 ([1]; NaCl 20 mM): 17.88 ns
τf ([1]; NaCl 20 mM): 15.65 ns
τα ([1]; NaCl 20 mM): 8.08 ns
f1 ([1]; NaCl 50 mM): 0.03
f2 ([1]; NaCl 50 mM): 0.22
f3 ([1]; NaCl 50 mM): 0.75
α1 ([1]; NaCl 50 mM): 0.38
α2 ([1]; NaCl 50 mM): 0.29
α3 ([1]; NaCl 50 mM): 0.33
τ1 ([1]; NaCl 50 mM): 0.73 ns
τ2 ([1]; NaCl 50 mM): 5.54 ns
τ3 ([1]; NaCl 50 mM): 16.81 ns
τf ([1]; NaCl 50 mM): 13.76 ns
τα ([1]; NaCl 50 mM): 7.38 ns
f1 ([1]; NaCl 90 mM): 0.05
f2 ([1]; NaCl 90 mM): 0.26
f3 ([1]; NaCl 90 mM): 0.68
α1 ([1]; NaCl 90 mM): 0.43
α2 ([1]; NaCl 90 mM): 0.31
α3 ([1]; NaCl 90 mM): 0.26
τ1 ([1]; NaCl 90 mM): 0.75 ns
τ2 ([1]; NaCl 90 mM): 5.33 ns
τ3 ([1]; NaCl 90 mM): 16.41 ns
τf ([1]; NaCl 90 mM): 12.49 ns
τα ([1]; NaCl 90 mM): 6.18 ns
f1 ([1]; NaCl 140 mM): 0.06
f2 ([1]; NaCl 140 mM): 0.31
f3 ([1]; NaCl 140 mM): 0.62
α1 ([1]; NaCl 140 mM): 0.44
α2 ([1]; NaCl 140 mM): 0.33
α3 ([1]; NaCl 140 mM): 0.22
τ1 ([1]; NaCl 140 mM): 0.82 ns
τ2 ([1]; NaCl 140 mM): 5.43 ns
τ3 ([1]; NaCl 140 mM): 16.26 ns
τf ([1]; NaCl 140 mM): 11.91 ns
τα ([1]; NaCl 140 mM): 5.81 ns
f1 ([1]; NaCl 200 mM): 0.08
f2 ([1]; NaCl 200 mM): 0.34
f3 ([1]; NaCl 200 mM): 0.58
α1 ([1]; NaCl 200 mM): 0.48
α2 ([1]; NaCl 200 mM): 0.34
α3 ([1]; NaCl 200 mM): 0.20
τ1 ([1]; NaCl 200 mM): 0.77 ns
τ2 ([1]; NaCl 200 mM): 4.92 ns
τ3 ([1]; NaCl 200 mM): 15.93 ns
τf ([1]; NaCl 200 mM): 11.03 ns
τα ([1]; NaCl 200 mM): 4.90 ns

COc1cc(N2CCOCCOCCN(c3cc(OC)c(NC(=O)c4ccc(-c5c6cc(Cl)c(=O)cc-6oc6cc([O-])c(Cl)cc56)c(C(=O)[O-])c4)cc3OC)CCOCC2)c(OC)cc1NC(=O)c1ccc(-c2c3cc(Cl)c(=O)cc-3oc3cc([O-])c(Cl)cc23)c(C(=O)[O-])c1.C[N+](C)(C)C.C[N+](C)(C)C.C[N+](C)(C)C.C[N+](C)(C)C [SG]
anisotropy decay [2]: decayed quickly to zero
Kd [3]: ~10 mM and ~6.5 mM
Kd [4]: ~100 mM
